How the values were obtained:
Assay in all cases: relative viability (nuclei count vs DMSO), 5 days (fraction); higher = more cells survive
NVP-TAE684 + Pictilisib = compound: COc1cc(N2CCC(N3CCN(C)CC3)CC2)ccc1Nc1ncc(Cl)c(Nc2ccccc2S(=O)(=O)C(C)C)n1 [NVP-TAE684] + CS(=O)(=O)N1CCN(Cc2cc3nc(-c4cccc5[nH]ncc45)nc(N4CCOCC4)c3s2)CC1 [Pictilisib] (partner 1 µM)
How it was run: (§1)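 The day after seeding in 1536-well plates, lung cancer cell lines were treated by pin tool with a single drug, or with a fixed anchor-drug dose together with five library-drug doses (not always all listed) in √10 steps. After 5 days, a combined fix-and-stain solution (final 0.05% Triton X-100, 1% formaldehyde, 1 ug/ml Hoechst) was added. Nuclei counted on 4× images gave relative viability as treated counts over vehicle counts, reported as the median of duplicate plates.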

NVP-TAE684 + Olaparib = compound: COc1cc(N2CCC(N3CCN(C)CC3)CC2)ccc1Nc1ncc(Cl)c(Nc2ccccc2S(=O)(=O)C(C)C)n1 [NVP-TAE684] + O=C(c1cc(Cc2n[nH]c(=O)c3ccccc23)ccc1F)N1CCN(C(=O)C2CC2)CC1 [Olaparib] (partner 8 µM)
How it was run: as §1

Vandetanib + Pictilisib = compound: COc1cc2/c(=N/c3ccc(Br)cc3F)nc[nH]c2cc1OCC1CCN(C)CC1 [Vandetanib] + CS(=O)(=O)N1CCN(Cc2cc3nc(-c4cccc5[nH]ncc45)nc(N4CCOCC4)c3s2)CC1 [Pictilisib] (partner 1 µM)
How it was run: as §1

NVP-TAE684 + Trametinib = compound: COc1cc(N2CCC(N3CCN(C)CC3)CC2)ccc1Nc1ncc(Cl)c(Nc2ccccc2S(=O)(=O)C(C)C)n1 [NVP-TAE684] + CC(=O)Nc1cccc(-n2c(=O)n(C3CC3)c(=O)c3c(Nc4ccc(I)cc4F)n(C)c(=O)c(C)c32)c1 [Trametinib] (partner 0.02 µM)
How it was run: as §1

NVP-TAE684 + OSI-027 = compound: COc1cc(N2CCC(N3CCN(C)CC3)CC2)ccc1Nc1ncc(Cl)c(Nc2ccccc2S(=O)(=O)C(C)C)n1 [NVP-TAE684] + COc1cccc2cc(-c3nc([C@H]4CC[C@H](C(=O)O)CC4)n4ncnc(N)c34)[nH]c12 [OSI-027] (partner 0.5 µM)
How it was run: as §1

Row | Cell Line | relative viability (NVP-TAE684 + Pictilisib; first compound 0.2 µM) | relative viability (NVP-TAE684 + Pictilisib; first compound 0.6325 µM) | relative viability (NVP-TAE684 + Pictilisib; first compound 2 µM) | relative viability (NVP-TAE684 + Olaparib; first compound 0.2 µM) | relative viability (NVP-TAE684 + Olaparib; first compound 0.6325 µM) | relative viability (NVP-TAE684 + Olaparib; first compound 2 µM) | relative viability (Vandetanib + Pictilisib; first compound 0.02 µM) | relative viability (Vandetanib + Pictilisib; first compound 0.06325 µM) | relative viability (Vandetanib + Pictilisib; first compound 0.2 µM) | relative viability (Vandetanib + Pictilisib; first compound 0.6325 µM) | relative viability (Vandetanib + Pictilisib; first compound 2 µM) | relative viability (NVP-TAE684 + Trametinib; first compound 0.2 µM) | relative viability (NVP-TAE684 + Trametinib; first compound 0.6325 µM) | relative viability (NVP-TAE684 + Trametinib; first compound 2 µM) | relative viability (NVP-TAE684 + OSI-027; first compound 0.2 µM) | relative viability (NVP-TAE684 + OSI-027; first compound 0.6325 µM) | relative viability (NVP-TAE684 + OSI-027; first compound 2 µM)
1 | NCI-H650 | 0.789 | 0.69 | 0.497 | 0.423 | 0.376 | 0.289 | 0.809 | 0.849 | 0.884 | 0.908 | 0.811 | 1.08 | 0.951 | 0.726 | 0.441 | 0.458 | 0.332
2 | LXF-289 | 0.717 | 0.812 | 0.578 | 0.931 | 1.08 | 0.487 | 0.828 | 0.771 | 0.773 | 0.792 | 0.798 | 0.608 | 0.7 | 0.624 | 0.798 | 0.808 | 0.317
3 | CAL-12T | 0.36 | 0.245 | 0.305 | 0.664 | 0.781 | 0.267 | 0.436 | 0.412 | 0.398 | 0.398 | 0.311 | 0.283 | 0.251 | 0.127 | 0.538 | 0.372 | 0.158
4 | SK-MES-1 | 0.475 | 0.393 | 0.309 | 0.794 | 0.668 | 0.405 | 0.379 | 0.294 | 0.319 | 0.259 | 0.22 | 0.578 | 0.492 | 0.378 | 0.447 | 0.529 | 0.352
5 | SW 1573 | 0.571 | 0.471 | 0.39 | 0.519 | 0.401 | 0.148 | 0.545 | 0.534 | 0.552 | 0.436 | 0.407 | 0.651 | 0.495 | 0.21 | 0.741 | 0.455 | 0.226
6 | NCI-H1975 | 0.281 | 0.231 | 0.191 | 0.862 | 0.748 | 0.288 | 0.285 | 0.26 | 0.296 | 0.27 | 0.301 | 0.325 | 0.335 | 0.215 | 0.732 | 0.594 | 0.341
7 | NCI-H647 | 0.429 | 0.381 | 0.473 | 0.434 | 0.562 | 0.16 | 0.457 | 0.419 | 0.349 | 0.412 | 0.161 | 0.483 | 0.489 | 0.216 | 0.692 | 0.58 | 0.417
8 | NCI-H322M | 0.43 | 0.463 | 0.388 | 0.715 | 0.723 | 0.558 | 0.397 | 0.517 | 0.498 | 0.459 | 0.351 | 0.589 | 0.447 | 0.294 | 0.426 | 0.469 | 0.336
